{"source": "patent US11572590B2", "about": "“Methods for evaluating tumor cell spheroids using 3D microfluidic cell culture device” (Dana-Farber Cancer Institute, Inc., priority 2017, dated 2023)", "assay_in_all_cases": "SelectScreen Kinase Profiling, single point inhibition and IC50 for off-target kinases", "assay_type_in_all_cases": "biochemical", "key": {"off-target kinases [1]": {"molecular_target": "off-target kinases (Homo sapiens, UniProt O75676)", "sequence (O75676 whole entry)": "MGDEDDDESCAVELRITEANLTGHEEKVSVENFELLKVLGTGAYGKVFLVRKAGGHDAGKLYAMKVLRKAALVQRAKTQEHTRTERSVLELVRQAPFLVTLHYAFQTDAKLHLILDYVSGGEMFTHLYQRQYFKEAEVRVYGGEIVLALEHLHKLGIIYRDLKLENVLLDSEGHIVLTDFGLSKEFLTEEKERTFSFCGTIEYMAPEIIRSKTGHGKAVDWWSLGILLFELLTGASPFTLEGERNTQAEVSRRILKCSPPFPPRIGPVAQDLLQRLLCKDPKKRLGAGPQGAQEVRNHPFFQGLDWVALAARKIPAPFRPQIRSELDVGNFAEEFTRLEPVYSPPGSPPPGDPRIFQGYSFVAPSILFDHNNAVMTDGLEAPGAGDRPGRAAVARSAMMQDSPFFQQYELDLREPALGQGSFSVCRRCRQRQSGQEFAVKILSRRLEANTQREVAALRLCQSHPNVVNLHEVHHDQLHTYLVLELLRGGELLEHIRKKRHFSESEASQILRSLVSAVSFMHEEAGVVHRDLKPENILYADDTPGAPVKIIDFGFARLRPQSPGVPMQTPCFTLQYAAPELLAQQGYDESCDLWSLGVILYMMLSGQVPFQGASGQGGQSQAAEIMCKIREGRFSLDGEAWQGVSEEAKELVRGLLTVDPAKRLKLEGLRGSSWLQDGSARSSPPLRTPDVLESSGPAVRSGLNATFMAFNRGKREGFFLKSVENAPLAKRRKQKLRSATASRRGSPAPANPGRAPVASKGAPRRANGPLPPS", "settings": "RPS6KA4 (MSK2), ZLYTE, ATP Km app"}, "off-target kinases [2]": {"molecular_target": "off-target kinases (Homo sapiens, UniProt Q9P0L2)", "sequence (Q9P0L2 whole entry)": "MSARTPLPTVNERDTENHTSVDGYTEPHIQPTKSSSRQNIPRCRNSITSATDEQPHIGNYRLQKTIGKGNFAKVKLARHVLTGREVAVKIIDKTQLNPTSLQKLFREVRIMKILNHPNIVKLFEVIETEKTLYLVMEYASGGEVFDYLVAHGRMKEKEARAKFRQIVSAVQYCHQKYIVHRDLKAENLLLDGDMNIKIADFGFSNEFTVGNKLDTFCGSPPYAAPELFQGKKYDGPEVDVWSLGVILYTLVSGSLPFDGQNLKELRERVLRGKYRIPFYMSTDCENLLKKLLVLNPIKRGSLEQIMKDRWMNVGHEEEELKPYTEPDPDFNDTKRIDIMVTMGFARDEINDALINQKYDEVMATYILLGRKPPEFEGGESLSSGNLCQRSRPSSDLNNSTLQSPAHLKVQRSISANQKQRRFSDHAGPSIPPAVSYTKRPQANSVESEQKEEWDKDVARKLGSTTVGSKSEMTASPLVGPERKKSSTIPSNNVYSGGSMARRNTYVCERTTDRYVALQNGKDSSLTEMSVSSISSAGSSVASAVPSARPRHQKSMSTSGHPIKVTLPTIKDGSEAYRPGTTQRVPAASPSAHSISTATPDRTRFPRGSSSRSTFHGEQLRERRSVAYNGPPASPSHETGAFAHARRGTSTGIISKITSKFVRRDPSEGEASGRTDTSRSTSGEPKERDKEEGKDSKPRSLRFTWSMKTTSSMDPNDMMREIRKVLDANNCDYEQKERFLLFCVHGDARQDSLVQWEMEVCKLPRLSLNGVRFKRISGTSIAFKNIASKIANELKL", "settings": "MARK1 (MARK), ATP Km app, ZLYTE"}, "off-target kinases [3]": {"molecular_target": "T1, off-target kinases (Homo sapiens, UniProt Q8IYT8)", "T1 sequence (Q8IYT8 1-1036)": "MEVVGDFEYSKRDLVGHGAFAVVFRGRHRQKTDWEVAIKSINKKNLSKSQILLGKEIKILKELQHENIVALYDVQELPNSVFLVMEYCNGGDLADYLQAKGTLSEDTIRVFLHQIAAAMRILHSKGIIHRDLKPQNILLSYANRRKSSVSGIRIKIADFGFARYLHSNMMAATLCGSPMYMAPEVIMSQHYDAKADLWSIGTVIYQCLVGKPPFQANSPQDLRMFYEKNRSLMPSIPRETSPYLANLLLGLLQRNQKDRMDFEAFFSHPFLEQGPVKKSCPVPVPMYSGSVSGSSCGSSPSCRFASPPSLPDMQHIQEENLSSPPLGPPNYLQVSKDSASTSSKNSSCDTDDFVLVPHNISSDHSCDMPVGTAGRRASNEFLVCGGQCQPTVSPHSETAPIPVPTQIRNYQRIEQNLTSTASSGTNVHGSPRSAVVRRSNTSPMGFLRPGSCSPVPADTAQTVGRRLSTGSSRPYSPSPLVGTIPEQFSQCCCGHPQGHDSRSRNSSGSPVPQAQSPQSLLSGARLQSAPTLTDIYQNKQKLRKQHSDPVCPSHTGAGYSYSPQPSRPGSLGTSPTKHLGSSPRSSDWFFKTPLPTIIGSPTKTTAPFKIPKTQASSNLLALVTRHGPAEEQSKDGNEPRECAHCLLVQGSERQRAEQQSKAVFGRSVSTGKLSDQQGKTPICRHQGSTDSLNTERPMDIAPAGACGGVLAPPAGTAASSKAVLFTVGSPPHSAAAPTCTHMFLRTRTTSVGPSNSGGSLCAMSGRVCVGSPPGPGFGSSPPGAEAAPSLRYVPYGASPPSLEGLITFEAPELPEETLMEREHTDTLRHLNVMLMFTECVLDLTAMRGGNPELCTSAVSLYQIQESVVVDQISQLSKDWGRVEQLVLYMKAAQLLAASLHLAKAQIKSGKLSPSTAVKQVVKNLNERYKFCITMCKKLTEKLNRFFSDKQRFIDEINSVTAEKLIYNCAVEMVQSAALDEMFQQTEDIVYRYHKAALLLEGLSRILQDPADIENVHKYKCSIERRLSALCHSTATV", "settings": "ULK2, LanthaScreen Binding"}, "off-target kinases [4]": {"molecular_target": "off-target kinases (Homo sapiens, UniProt P35916)", "sequence (P35916 25-1363)": "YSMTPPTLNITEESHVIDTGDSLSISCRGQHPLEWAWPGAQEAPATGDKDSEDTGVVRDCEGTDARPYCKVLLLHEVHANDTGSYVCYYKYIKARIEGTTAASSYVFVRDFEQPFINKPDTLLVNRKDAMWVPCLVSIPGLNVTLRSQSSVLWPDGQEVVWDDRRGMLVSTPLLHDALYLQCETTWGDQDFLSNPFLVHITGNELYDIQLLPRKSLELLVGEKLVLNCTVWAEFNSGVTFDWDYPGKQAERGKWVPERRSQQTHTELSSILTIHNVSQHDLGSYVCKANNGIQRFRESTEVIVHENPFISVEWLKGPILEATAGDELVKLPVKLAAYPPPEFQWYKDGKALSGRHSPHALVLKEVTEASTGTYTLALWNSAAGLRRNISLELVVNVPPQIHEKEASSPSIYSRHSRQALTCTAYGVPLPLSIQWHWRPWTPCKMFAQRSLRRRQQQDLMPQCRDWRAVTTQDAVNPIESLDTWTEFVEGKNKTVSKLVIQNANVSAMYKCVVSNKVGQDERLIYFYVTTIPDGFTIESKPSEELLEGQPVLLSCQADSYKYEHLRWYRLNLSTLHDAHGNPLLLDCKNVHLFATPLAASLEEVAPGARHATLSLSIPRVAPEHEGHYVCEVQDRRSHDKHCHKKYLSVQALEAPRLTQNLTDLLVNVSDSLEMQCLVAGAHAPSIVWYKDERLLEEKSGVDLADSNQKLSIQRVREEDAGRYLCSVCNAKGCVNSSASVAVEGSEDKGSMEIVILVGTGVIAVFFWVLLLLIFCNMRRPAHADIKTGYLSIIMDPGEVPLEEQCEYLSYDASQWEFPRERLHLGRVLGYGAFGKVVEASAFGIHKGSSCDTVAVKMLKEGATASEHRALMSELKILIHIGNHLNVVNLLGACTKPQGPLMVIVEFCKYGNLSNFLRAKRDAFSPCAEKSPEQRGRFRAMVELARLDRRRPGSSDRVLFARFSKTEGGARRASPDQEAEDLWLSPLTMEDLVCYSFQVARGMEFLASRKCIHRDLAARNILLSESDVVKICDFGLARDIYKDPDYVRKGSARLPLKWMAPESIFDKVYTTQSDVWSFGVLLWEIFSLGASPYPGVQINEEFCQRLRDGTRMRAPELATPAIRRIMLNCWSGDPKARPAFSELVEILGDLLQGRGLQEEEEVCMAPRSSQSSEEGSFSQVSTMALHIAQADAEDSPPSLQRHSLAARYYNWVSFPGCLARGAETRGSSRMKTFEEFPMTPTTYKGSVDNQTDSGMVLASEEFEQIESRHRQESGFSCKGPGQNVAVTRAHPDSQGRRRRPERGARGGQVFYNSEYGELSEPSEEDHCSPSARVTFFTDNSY", "settings": "FLT4 (VEGFR3), ATP Km app, ZLYTE"}, "off-target kinases [5]": {"molecular_target": "off-target kinases (Homo sapiens, UniProt O00418)", "sequence (O00418 whole entry)": "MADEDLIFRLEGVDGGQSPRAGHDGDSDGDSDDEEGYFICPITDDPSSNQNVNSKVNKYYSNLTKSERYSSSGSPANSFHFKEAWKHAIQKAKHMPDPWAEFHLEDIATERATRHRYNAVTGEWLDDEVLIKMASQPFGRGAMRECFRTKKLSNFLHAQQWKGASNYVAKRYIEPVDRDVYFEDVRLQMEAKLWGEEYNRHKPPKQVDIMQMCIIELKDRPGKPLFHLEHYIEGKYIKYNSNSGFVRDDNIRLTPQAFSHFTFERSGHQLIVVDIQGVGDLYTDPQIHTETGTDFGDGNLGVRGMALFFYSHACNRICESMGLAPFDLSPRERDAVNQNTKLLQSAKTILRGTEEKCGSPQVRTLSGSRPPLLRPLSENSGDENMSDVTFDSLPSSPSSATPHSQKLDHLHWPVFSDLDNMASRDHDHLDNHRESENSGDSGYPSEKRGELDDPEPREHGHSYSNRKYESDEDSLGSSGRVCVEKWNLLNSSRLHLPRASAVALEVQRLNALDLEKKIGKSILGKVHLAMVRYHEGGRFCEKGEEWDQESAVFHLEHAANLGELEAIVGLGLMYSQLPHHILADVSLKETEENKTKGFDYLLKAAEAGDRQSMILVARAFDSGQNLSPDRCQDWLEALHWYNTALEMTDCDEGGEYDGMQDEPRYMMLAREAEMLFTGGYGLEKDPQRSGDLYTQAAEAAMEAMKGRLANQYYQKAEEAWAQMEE"}, "off-target kinases [6]": {"molecular_target": "off-target kinases (Homo sapiens, UniProt Q9Y2H1)", "sequence (Q9Y2H1 whole entry)": "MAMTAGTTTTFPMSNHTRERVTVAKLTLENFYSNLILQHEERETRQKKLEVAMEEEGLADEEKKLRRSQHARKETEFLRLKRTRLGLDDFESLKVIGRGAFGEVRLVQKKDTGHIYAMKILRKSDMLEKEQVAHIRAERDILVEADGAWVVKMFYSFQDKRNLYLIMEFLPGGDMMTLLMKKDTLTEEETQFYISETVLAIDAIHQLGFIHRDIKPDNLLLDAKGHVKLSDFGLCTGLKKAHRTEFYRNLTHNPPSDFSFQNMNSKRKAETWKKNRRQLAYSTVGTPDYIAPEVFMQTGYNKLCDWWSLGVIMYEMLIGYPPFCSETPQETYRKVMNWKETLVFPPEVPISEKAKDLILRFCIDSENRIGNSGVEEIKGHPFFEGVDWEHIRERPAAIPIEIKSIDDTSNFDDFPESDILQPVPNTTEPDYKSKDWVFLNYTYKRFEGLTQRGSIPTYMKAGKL", "settings": "STK38L (NDR2), LanthaScreen Binding"}, "off-target kinases [7]": {"molecular_target": "off-target kinases (Homo sapiens, UniProt Q9BUB5)", "sequence (Q9BUB5 whole entry)": "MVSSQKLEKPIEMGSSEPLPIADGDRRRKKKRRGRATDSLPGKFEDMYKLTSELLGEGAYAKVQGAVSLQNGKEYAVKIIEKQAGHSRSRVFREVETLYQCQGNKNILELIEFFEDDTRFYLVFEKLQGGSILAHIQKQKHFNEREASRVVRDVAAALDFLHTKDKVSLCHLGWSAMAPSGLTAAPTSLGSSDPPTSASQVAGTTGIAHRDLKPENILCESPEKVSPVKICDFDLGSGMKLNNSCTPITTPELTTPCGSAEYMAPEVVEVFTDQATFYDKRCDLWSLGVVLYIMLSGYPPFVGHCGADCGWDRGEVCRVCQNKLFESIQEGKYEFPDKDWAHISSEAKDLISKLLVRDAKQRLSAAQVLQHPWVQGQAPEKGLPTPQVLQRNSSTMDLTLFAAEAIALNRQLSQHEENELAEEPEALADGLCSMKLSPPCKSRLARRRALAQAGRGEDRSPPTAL", "settings": "MKNK1 (MNK1), ATP Km app, ZLYTE"}}, "note": "Like-named read-outs stand apart in the source and are kept apart here."}
{"smiles": "N#Cc1cc(-c2ncnc(Nc3ccc(N4CCN(C5COC5)CC4)cc3)n2)ccc1OC1CCOCC1", "note": "[Compound 1, 5-(4-((4-(4-(oxetan-3-yl)piperazin-1-yl)phenyl)amino)-1,3,5-triazin-2-yl)-2-((tetrahydro-2H-pyran-4-yl)oxy)benzonitrile]", "values": [{"measurement": "inhibition", "setting": "off-target kinases [1]; read-out: % Inhibition 1", "value": 0, "unit": "%"}, {"measurement": "inhibition", "setting": "off-target kinases [1]; read-out: % Inhibition 2", "value": 2, "unit": "%"}, {"measurement": "inhibition", "setting": "off-target kinases [1]; read-out: % Inhibition Avg", "value": 1, "unit": "%"}, {"measurement": "inhibition", "setting": "off-target kinases [2]; read-out: % Inhibition 1", "value": 85, "unit": "%"}, {"measurement": "inhibition", "setting": "off-target kinases [2]; read-out: % Inhibition 2", "value": 87, "unit": "%"}, {"measurement": "inhibition", "setting": "off-target kinases [2]; read-out: % Inhibition Avg", "value": 86, "unit": "%"}, {"measurement": "inhibition", "setting": "off-target kinases [3]; read-out: % Inhibition 1", "value": 86, "unit": "%"}, {"measurement": "inhibition", "setting": "off-target kinases [3]; read-out: % Inhibition 2", "value": 90, "unit": "%"}, {"measurement": "inhibition", "setting": "off-target kinases [3]; read-out: % Inhibition Avg", "value": 88, "unit": "%"}, {"measurement": "inhibition", "setting": "off-target kinases [4]; read-out: % Inhibition 1", "value": 64, "unit": "%"}, {"measurement": "inhibition", "setting": "off-target kinases [4]; read-out: % Inhibition 2", "value": 60, "unit": "%"}, {"measurement": "inhibition", "setting": "off-target kinases [4]; read-out: % Inhibition Avg", "value": 62, "unit": "%"}, {"measurement": "inhibition", "setting": "off-target kinases [5]; read-out: % Inhibition 1", "value": -1, "unit": "%"}, {"measurement": "inhibition", "setting": "off-target kinases [5]; read-out: % Inhibition 2", "value": 0, "unit": "%"}, {"measurement": "inhibition", "setting": "off-target kinases [5]; read-out: % Inhibition Avg", "value": -1, "unit": "%"}, {"measurement": "inhibition", "setting": "off-target kinases [6]; read-out: % Inhibition 1", "value": 30, "unit": "%"}, {"measurement": "inhibition", "setting": "off-target kinases [6]; read-out: % Inhibition 2", "value": 38, "unit": "%"}, {"measurement": "inhibition", "setting": "off-target kinases [6]; read-out: % Inhibition Avg", "value": 34, "unit": "%"}, {"measurement": "inhibition", "setting": "off-target kinases [7]; read-out: % Inhibition 1", "value": 99, "unit": "%"}, {"measurement": "inhibition", "setting": "off-target kinases [7]; read-out: % Inhibition 2", "value": 100, "unit": "%"}, {"measurement": "inhibition", "setting": "off-target kinases [7]; read-out: % Inhibition Avg", "value": 100, "unit": "%"}]}
